Data published in ChEMBL document CHEMBL3885861, “Open TG-GATES”.

Species: Rattus norvegicus
Assay: Open TG-GATES - Regimen: Single
Assay type: toxicity, organism-based, Sprague-Dawley
Parameters: regimen Single, gender Male, age 6 weeks
Settings: in vivo, po, route gavage; for APTT / Bas / Eos / Fbg / Hb / Ht / Lym / MCH / MCHC / MCV / Mono / Neu / PT / Plat / RBC / Ret / WBC: tissue Blood; for ALP / ALT / AST / BUN / CRE / DBIL / GLC / IP / K / Na / PL / RALB / TBIL / TC / TG / TP / gamma-GTP: tissue Plasma
[1] = 100 mg/kg, 3 h, dose level Middle
[2] = 100 mg/kg, 6 h, dose level Middle
[3] = 100 mg/kg, 9 h, dose level Middle
[4] = 100 mg/kg, 24 h, dose level Middle
[5] = 300 mg/kg, 3 h, dose level High
[6] = 300 mg/kg, 6 h, dose level High
[7] = 300 mg/kg, 9 h, dose level High
[8] = 300 mg/kg, 24 h, dose level High

NS(=O)(=O)c1cc(C(=O)O)c(NCc2ccco2)cc1Cl [FUROSEMIDE]
TERMINAL_BW [1]: 199.5 g | APTT [1]: 18.8 s | Bas [1]: 0% | Eos [1]: 1% | Fbg [1]: 324.8 mg/dL | Hb [1]: 14.3 g/dL | Ht [1]: 42.5% | Lym [1]: 70.8% | MCH [1]: 21.4 pg | MCHC [1]: 33.7% | MCV [1]: 63.3 fL | Mono [1]: 5.4% | Neu [1]: 22% | PT [1]: 14.9 s | Plat [1]: 121.3 x10_4/uL | RBC [1]: 670.4 x10_4/ul | Ret [1]: 7.9% | WBC [1]: 73.3 x10_2/uL | ALP [1]: 1574.2 IU/L | ALT [1]: 43.6 IU/L | AST [1]: 77.6 IU/L | BUN [1]: 19.8 mg/dL | CRE [1]: 0.3 mg/dL | DBIL [1]: 0.01 mg/dL | GLC [1]: 182.2 mg/dL | IP [1]: 11.3 mg/dL | K [1]: 3.6 meq/L | Na [1]: 140.8 meq/L | PL [1]: 161.6 mg/dL | RALB [1]: 3 g/dL | TBIL [1]: 0.064 mg/dL | TC [1]: 88 mg/dL | TG [1]: 64.2 mg/dL | TP [1]: 6.4 g/dL | gamma-GTP [1]: 1 IU/L | TERMINAL_BW [2]: 195.4 g | APTT [2]: 17.3 s | Bas [2]: 0% | Eos [2]: 1% | Fbg [2]: 323.2 mg/dL | Hb [2]: 14.7 g/dL | Ht [2]: 43.3% | Lym [2]: 64.8% | MCH [2]: 20.8 pg | MCHC [2]: 33.8% | MCV [2]: 61.7 fL | Mono [2]: 4.2% | Neu [2]: 29.6% | PT [2]: 14.9 s | Plat [2]: 125.9 x10_4/uL | RBC [2]: 703.4 x10_4/ul | Ret [2]: 7.7% | WBC [2]: 73.2 x10_2/uL | ALP [2]: 1685 IU/L | ALT [2]: 42.6 IU/L | AST [2]: 84.6 IU/L | BUN [2]: 21.8 mg/dL | CRE [2]: 0.2 mg/dL | DBIL [2]: 0.012 mg/dL | GLC [2]: 192.6 mg/dL | IP [2]: 10.4 mg/dL | K [2]: 3.5 meq/L | Na [2]: 141.2 meq/L | PL [2]: 162.8 mg/dL | RALB [2]: 3 g/dL | TBIL [2]: 0.068 mg/dL | TC [2]: 83.6 mg/dL | TG [2]: 71.8 mg/dL | TP [2]: 6.4 g/dL | gamma-GTP [2]: 1 IU/L | TERMINAL_BW [3]: 193.8 g | APTT [3]: 18 s | Bas [3]: 0% | Eos [3]: 0.8% | Fbg [3]: 334.8 mg/dL | Hb [3]: 14.6 g/dL | Ht [3]: 42.6% | Lym [3]: 68.6% | MCH [3]: 20.8 pg | MCHC [3]: 34.1% | MCV [3]: 61.1 fL | Mono [3]: 3.2% | Neu [3]: 26.8% | PT [3]: 15 s | Plat [3]: 133.5 x10_4/uL | RBC [3]: 697.8 x10_4/ul | Ret [3]: 7.4% | WBC [3]: 72.2 x10_2/uL | ALP [3]: 1341.8 IU/L | ALT [3]: 36.2 IU/L | AST [3]: 74.6 IU/L | BUN [3]: 20.2 mg/dL | CRE [3]: 0.2 mg/dL | DBIL [3]: 0.01 mg/dL | GLC [3]: 173.8 mg/dL | IP [3]: 11.1 mg/dL | K [3]: 3.6 meq/L | Na [3]: 141.4 meq/L | PL [3]: 149.6 mg/dL | RALB [3]: 3 g/dL | TBIL [3]: 0.072 mg/dL | TC [3]: 88.6 mg/dL | TG [3]: 36.2 mg/dL | TP [3]: 6.3 g/dL | gamma-GTP [3]: 0.8 IU/L | TERMINAL_BW [4]: 215 g | APTT [4]: 17.7 s | Bas [4]: 0% | Eos [4]: 0.8% | Fbg [4]: 286.8 mg/dL | Hb [4]: 13.3 g/dL | Ht [4]: 39.6% | Lym [4]: 80.4% | MCH [4]: 21.9 pg | MCHC [4]: 33.7% | MCV [4]: 64.9 fL | Mono [4]: 2.4% | Neu [4]: 15% | PT [4]: 15.7 s | Plat [4]: 102.2 x10_4/uL | RBC [4]: 610.4 x10_4/ul | Ret [4]: 7% | WBC [4]: 102.9 x10_2/uL | ALP [4]: 1380 IU/L | ALT [4]: 42.4 IU/L | AST [4]: 68.2 IU/L | BUN [4]: 19.4 mg/dL | CRE [4]: 0.2 mg/dL | DBIL [4]: 0.008 mg/dL | GLC [4]: 189.4 mg/dL | IP [4]: 8 mg/dL | K [4]: 3.7 meq/L | Na [4]: 141.6 meq/L | PL [4]: 155.2 mg/dL | RALB [4]: 2.6 g/dL | TBIL [4]: 0.054 mg/dL | TC [4]: 81.4 mg/dL | TG [4]: 56 mg/dL | TP [4]: 5.7 g/dL | gamma-GTP [4]: 0.2 IU/L | TERMINAL_BW [5]: 199.2 g | APTT [5]: 18.3 s | Bas [5]: 0% | Eos [5]: 1% | Fbg [5]: 357 mg/dL | Hb [5]: 14.8 g/dL | Ht [5]: 43.9% | Lym [5]: 66.6% | MCH [5]: 21.4 pg | MCHC [5]: 33.7% | MCV [5]: 63.6 fL | Mono [5]: 4.6% | Neu [5]: 26.4% | PT [5]: 14.8 s | Plat [5]: 119.6 x10_4/uL | RBC [5]: 690.4 x10_4/ul | Ret [5]: 8.3% | WBC [5]: 67.2 x10_2/uL | ALP [5]: 1694 IU/L | ALT [5]: 47.2 IU/L | AST [5]: 78.4 IU/L | BUN [5]: 19.4 mg/dL | CRE [5]: 0.3 mg/dL | DBIL [5]: 0.01 mg/dL | GLC [5]: 193.8 mg/dL | IP [5]: 12.8 mg/dL | K [5]: 3.4 meq/L | Na [5]: 140 meq/L | PL [5]: 168.2 mg/dL | RALB [5]: 3.2 g/dL | TBIL [5]: 0.062 mg/dL | TC [5]: 91.6 mg/dL | TG [5]: 69 mg/dL | TP [5]: 6.9 g/dL | gamma-GTP [5]: 0.8 IU/L | TERMINAL_BW [6]: 194.8 g | APTT [6]: 20.9 s | Bas [6]: 0% | Eos [6]: 1% | Fbg [6]: 381.6 mg/dL | Hb [6]: 15.3 g/dL | Ht [6]: 45.3% | Lym [6]: 62.6% | MCH [6]: 21.4 pg | MCHC [6]: 33.8% | MCV [6]: 63.5 fL | Mono [6]: 4% | Neu [6]: 31.8% | PT [6]: 14.4 s | Plat [6]: 126.6 x10_4/uL | RBC [6]: 715 x10_4/ul | Ret [6]: 7.7% | WBC [6]: 72.7 x10_2/uL | ALP [6]: 1419.8 IU/L | ALT [6]: 39.2 IU/L | AST [6]: 77.2 IU/L | BUN [6]: 24.4 mg/dL | CRE [6]: 0.3 mg/dL | DBIL [6]: 0.008 mg/dL | GLC [6]: 190.6 mg/dL | IP [6]: 11.4 mg/dL | K [6]: 3.5 meq/L | Na [6]: 140 meq/L | PL [6]: 190 mg/dL | RALB [6]: 3.2 g/dL | TBIL [6]: 0.068 mg/dL | TC [6]: 111.4 mg/dL | TG [6]: 64.2 mg/dL | TP [6]: 6.9 g/dL | gamma-GTP [6]: 0.6 IU/L | TERMINAL_BW [7]: 192 g | APTT [7]: 19.5 s | Bas [7]: 0% | Eos [7]: 0.8% | Fbg [7]: 382.4 mg/dL | Hb [7]: 15.3 g/dL | Ht [7]: 44.8% | Lym [7]: 66.4% | MCH [7]: 21.3 pg | MCHC [7]: 34.1% | MCV [7]: 62.5 fL | Mono [7]: 3.4% | Neu [7]: 28.4% | PT [7]: 14.4 s | Plat [7]: 117.9 x10_4/uL | RBC [7]: 716 x10_4/ul | Ret [7]: 7.8% | WBC [7]: 73.1 x10_2/uL | ALP [7]: 1461.8 IU/L | ALT [7]: 38 IU/L | AST [7]: 71.6 IU/L | BUN [7]: 25.2 mg/dL | CRE [7]: 0.2 mg/dL | DBIL [7]: 0.012 mg/dL | GLC [7]: 186.8 mg/dL | IP [7]: 10.9 mg/dL | K [7]: 3.3 meq/L | Na [7]: 141.6 meq/L | PL [7]: 176.8 mg/dL | RALB [7]: 3.2 g/dL | TBIL [7]: 0.078 mg/dL | TC [7]: 102 mg/dL | TG [7]: 33.6 mg/dL | TP [7]: 6.8 g/dL | gamma-GTP [7]: 1 IU/L | TERMINAL_BW [8]: 195.5 g | APTT [8]: 16.8 s | Bas [8]: 0.2% | Eos [8]: 1% | Fbg [8]: 386.6 mg/dL | Hb [8]: 14.5 g/dL | Ht [8]: 41.9% | Lym [8]: 74% | MCH [8]: 21.2 pg | MCHC [8]: 34.5% | MCV [8]: 61.3 fL | Mono [8]: 3.4% | Neu [8]: 20.4% | PT [8]: 15.2 s | Plat [8]: 117.8 x10_4/uL | RBC [8]: 683.8 x10_4/ul | Ret [8]: 6.7% | WBC [8]: 95.6 x10_2/uL | ALP [8]: 1470.8 IU/L | ALT [8]: 44.4 IU/L | AST [8]: 72.8 IU/L | BUN [8]: 36.2 mg/dL | CRE [8]: 0.3 mg/dL | DBIL [8]: 0.014 mg/dL | GLC [8]: 178.4 mg/dL | IP [8]: 7.8 mg/dL | K [8]: 3.3 meq/L | Na [8]: 138.2 meq/L | PL [8]: 159.2 mg/dL | RALB [8]: 3 g/dL | TBIL [8]: 0.064 mg/dL | TC [8]: 93.2 mg/dL | TG [8]: 43 mg/dL | TP [8]: 6.4 g/dL | gamma-GTP [8]: 0.8 IU/L
